The test concerns the target T1, Tyrosine-protein phosphatase non-receptor type 11 (Homo sapiens, UniProt Q06124).
T1 sequence (Q06124 whole entry): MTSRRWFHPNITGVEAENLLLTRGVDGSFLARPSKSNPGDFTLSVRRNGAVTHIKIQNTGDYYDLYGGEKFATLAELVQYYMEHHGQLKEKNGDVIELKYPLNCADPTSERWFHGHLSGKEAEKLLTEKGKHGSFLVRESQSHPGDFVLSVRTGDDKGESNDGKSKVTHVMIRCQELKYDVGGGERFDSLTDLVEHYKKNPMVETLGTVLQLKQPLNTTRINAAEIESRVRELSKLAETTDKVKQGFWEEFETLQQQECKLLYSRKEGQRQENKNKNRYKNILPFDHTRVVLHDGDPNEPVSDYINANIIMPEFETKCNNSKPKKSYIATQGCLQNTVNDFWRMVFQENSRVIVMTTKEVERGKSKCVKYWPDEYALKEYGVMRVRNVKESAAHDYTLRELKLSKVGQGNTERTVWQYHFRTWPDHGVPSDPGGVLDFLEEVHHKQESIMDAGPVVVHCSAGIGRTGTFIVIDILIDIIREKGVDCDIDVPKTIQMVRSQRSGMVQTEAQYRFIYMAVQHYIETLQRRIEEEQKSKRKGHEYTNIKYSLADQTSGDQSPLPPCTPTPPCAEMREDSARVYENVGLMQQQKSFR
The test can be described thus: pNPP assay.

The record followed here is BindingDB's records for doi:10.1016/j.bmcl.2014.03.015 (Jiangnan University, 2014).

As for `[O]=[V]([OH])([OH])[OH]`, the IC50 – broadly, the concentration needed to halve the response being measured – was 34.7 µM.

Take `O=C(Nc1ccc(-c2ccc(NC(=O)c3ccc(F)cc3)cn2)cc1)c1ccc(F)cc1` [4-fluoro-N-(6-(4-(4-fluorobenzamido)phenyl)pyridin-3-yl)benzamide (29)]: the IC50 is 19.7 µM.
